Measurements reported in patent publication US9902722B2, “Biaryl kinase inhibitors” (BRISTOL-MYERS SQUIBB COMPANY, priority 2014, dated 2018).

These compounds were tested against GST-Xa-hAAK1 (Homo sapiens (Human), UniProt Q2M2I8) (assay: AAK1 Kinase Assay). Conditions: bacterially expressed GST-Xa-hAAK1 3.5 nM; ATP 22 μM; peptide substrate 1.5 μM; 3 hours at room temperature; Caliper LabChip 3000.
Type: biochemical
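Also: each compound tested across an eleven-point concentration series, with IC50 obtained through non-linear regression fitting.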
Experimental: The assays were performed in U-bottom 384-well plates. […] The reactions were initiated by the combination of bacterially expressed, GST-Xa-hAAK1 with substrates and test compounds. The reactions were incubated at room temperature for 3 hours and terminated by adding 60 μl of 35 mM EDTA buffer to each sample. […] Compounds were dissolved at 10 mM in dimethylsulfoxide (DMSO) and evaluated at eleven concentrations. IC50 values were derived by non-linear regression analysis.

Chain of GST-Xa-hAAK1 (Q2M2I8 whole entry): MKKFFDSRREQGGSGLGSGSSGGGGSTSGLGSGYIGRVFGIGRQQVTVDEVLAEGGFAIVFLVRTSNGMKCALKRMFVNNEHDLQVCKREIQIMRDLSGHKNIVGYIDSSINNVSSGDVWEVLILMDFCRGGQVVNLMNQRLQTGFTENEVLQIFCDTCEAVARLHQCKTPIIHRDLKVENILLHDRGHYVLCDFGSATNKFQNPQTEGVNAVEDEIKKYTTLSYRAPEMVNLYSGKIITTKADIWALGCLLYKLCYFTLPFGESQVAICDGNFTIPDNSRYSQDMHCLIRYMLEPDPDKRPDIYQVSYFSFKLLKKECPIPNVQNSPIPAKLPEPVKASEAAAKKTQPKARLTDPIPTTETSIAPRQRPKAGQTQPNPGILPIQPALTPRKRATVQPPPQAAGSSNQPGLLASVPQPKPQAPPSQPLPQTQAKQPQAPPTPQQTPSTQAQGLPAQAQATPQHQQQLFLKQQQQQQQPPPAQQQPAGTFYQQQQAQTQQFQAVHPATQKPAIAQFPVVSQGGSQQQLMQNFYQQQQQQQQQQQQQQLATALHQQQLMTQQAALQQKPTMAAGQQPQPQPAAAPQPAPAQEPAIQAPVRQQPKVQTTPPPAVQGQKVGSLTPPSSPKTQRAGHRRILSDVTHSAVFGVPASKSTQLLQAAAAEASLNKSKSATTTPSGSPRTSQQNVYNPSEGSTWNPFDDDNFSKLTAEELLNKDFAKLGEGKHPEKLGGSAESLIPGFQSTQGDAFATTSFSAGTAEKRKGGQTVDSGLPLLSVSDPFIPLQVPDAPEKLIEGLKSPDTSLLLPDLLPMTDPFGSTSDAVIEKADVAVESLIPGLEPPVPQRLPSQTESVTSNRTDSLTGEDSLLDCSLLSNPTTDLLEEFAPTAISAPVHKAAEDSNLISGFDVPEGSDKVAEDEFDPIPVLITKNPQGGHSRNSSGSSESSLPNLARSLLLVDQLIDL

First: COC(=O)Nc1cc(-c2ccc(OC[C@@](N)(CF)CC(C)C)c(C(F)F)n2)ccn1 [Example 180, (R)-methyl (5-((2-amino-2-(fluoromethyl)-4-methylpentyl)oxy)-6-(difluoromethyl)-[2,4′-bipyridin]-2′-yl)carbamate]
Second: COC(=O)Nc1cc(-c2ccc(OC[C@@](C)(N)CC(C)C)c(C(F)F)c2)ccn1 [Example 24, (S)-methyl (4-(4-((2-amino-2,4-dimethylpentyl)oxy)-3-(difluoromethyl)phenyl)pyridin-2-yl)carbamate]
The IC50 of the first is 38-fold higher: 24 nM for the first, 0.63 nM for the second.

Going from `CC(C)C[C@](C)(N)COc1ncc(-c2ccnc3cc(F)cc(F)c23)cc1C(F)(F)F` [Example 218, (S)-1-((5-(5,7-difluoroquinolin-4-yl)-3-(trifluoromethyl)pyridin-2-yl)oxy)-2,4-dimethylpentan-2-amine] to `CC(C)C[C@](C)(N)COc1ccc(-c2ccnc3cc(F)cc(F)c23)nc1Cl` [Example 135, (S)-1-((2-chloro-6-(5,7-difluoroquinolin-4-yl)pyridin-3-yl)oxy)-2,4-dimethylpentan-2-amine], the IC50 rises from 1 nM to 3.5 nM (3.5-fold).

`Cc1cc(-c2ccnc3ccccc23)ncc1OC[C@@](C)(N)CC(C)C` [Example 82, (S)-2,4-dimethyl-1-((4-methyl-6-(quinolin-4-yl)pyridin-3-yl)oxy)pentan-2-amine] and `Cc1cc(-c2ccnc3ccc(F)cc23)cnc1OC[C@@](C)(N)CC(C)C` [Example 223, (S)-1-((5-(6-fluoroquinolin-4-yl)-3-methylpyridin-2-yl)oxy)-2,4-dimethylpentan-2-amine] are within 1.5-fold of each other in IC50: 0.85 nM for the first, 0.88 nM for the second.

First: Cc1cc(-c2ccc(OC[C@@](C)(N)CC(C)C)c(C(F)F)n2)cnn1 [Example 163, (S)-1-((2-(difluoromethyl)-6-(6-methylpyridazin-4-yl)pyridin-3-yl)oxy)-2,4-dimethylpentan-2-amine]
Second: Cc1cc(-c2ccc(OC[C@@](C)(N)CC(C)C)c(C(F)F)n2)ccn1 [Example 119, (S)-1-((6-(difluoromethyl)-2′-methyl-[2,4′-bipyridin]-5-yl)oxy)-2,4-dimethylpentan-2-amine]
The IC50 of the first is 340-fold higher: 1100 nM for the first, 3.2 nM for the second. The second is the more potent here.

Going from `Cc1cc(-c2ccnc3cc(F)ccc23)cnc1OC[C@@](C)(N)CC(C)C` [Example 76, (S)-1-((5-(7-fluoroquinolin-4-yl)-3-methylpyridin-2-yl)oxy)-2,4-dimethylpentan-2-amine] to `Cc1cc(-c2ccnc(F)c2)ccc1OC[C@@](C)(N)CC(C)C` [Example 92, (S)-1-(4-(2-fluoropyridin-4-yl)-2-methylphenoxy)-2,4-dimethylpentan-2-amine], the IC50 rises from 1.7 nM to 5.4 nM (3.2-fold). The first is the more potent here.

First: Cc1cc(-c2ccc(OC[C@@](C)(N)CC(C)C)c(C(F)F)c2)ccn1 [Example 50, (S)-1-(2-(difluoromethyl)-4-(2-methylpyridin-4-yl)phenoxy)-2,4-dimethylpentan-2-amine]
Second: Cc1cc(-c2ccc(OC[C@@](C)(N)CC(C)C)c(C(F)(F)F)c2)ccn1 [Example 45, (S)-2,4-dimethyl-1-(4-(2-methylpyridin-4-yl)-2-(trifluoromethyl)phenoxy)pentan-2-amine]
The IC50 of the first is 3.2-fold lower: 0.38 nM for the first, 1.2 nM for the second.

Going from `CC(C)C[C@](C)(N)COc1ccc(-c2cc(F)ncc2Cl)cc1C(F)(F)F` [Example 40, (S)-1-(4-(5-chloro-2-fluoropyridin-4-yl)-2-(trifluoromethyl)phenoxy)-2,4-dimethylpentan-2-amine] to `CC(C)C[C@](C)(N)COc1ccc(-c2ccnc3cc(C#N)ccc23)cc1C(F)(F)F` [Example 89, (S)-4-(4-((2-amino-2,4-dimethylpentyl)oxy)-3-(trifluoromethyl)phenyl)quinoline-7-carbonitrile], the IC50 falls from 8.7 nM to 0.66 nM (13-fold).

`COC(=O)Nc1cc(-c2ccc(OC[C@@](C)(N)CC(C)C)c(C#N)c2)ccn1` [Example 22, (S)-methyl (4-(4-((2-amino-2,4-dimethylpentyl)oxy)-3-cyanophenyl)pyridin-2-yl)carbamate] was tested, and the IC50 was 0.65 nM.
